Data taken from patent EP2910557A1, “Enantiopure tetrasubstituted pyrrolidines as scaffolds for proteasome inhibitors and medicinal applications thereof” (Ikerchem, S.L., priority 2014, dated 2015).

Biological target: T1, Human erythrocyte 20S proteasome (Homo sapiens, UniProt P28074)
T1 construct: Enzyme: Human erythrocyte 20S proteasome; from tissue; host or cells: human erythrocytes
Experiment: In vitro enzymatic assay of proteasome inhibitory activity (Suc-Leu-Leu-Val-Tyr-AMC substrate)
Format: biochemical
Settings: for inhibition at 0.5 µM: Concentration 500 nM; for IC50: human erythrocyte 20S proteasome, 10 µM Suc-Leu-Leu-Val-Tyr-AMC, 37°C; for inhibition at 1 µM: Concentration 1000 nM
Experimental: Example 20: In vitro enzymatic assay of proteasome inhibitory activity.
Substrate: Suc-Leu-Leu-Val-Tyr-AMC
Assay buffer: 250 mM HEPES, pH 7.5, 0.5 mM EDTA, 0.03% SDS, 0.05% Igepal CA-630.
Enzyme: Human erythrocyte 20S proteasome
In vitro proteasome inhibitory activity of the compounds of the invention is evaluated by spectrofluorimetric quantitation of AMC. Stock solutions of compounds of the invention are prepared in dimethyl sulphoxide (DMSO). Test compound and/or vehicle is preincubated with […] enzyme (human erythrocyte 20S proteasome) in modified HEPES buffer pH 7.5 and 1% final concentration of DMSO for 15 minutes at 37°C. The reaction is initiated by addition of 10 µM Suc-Leu-Leu-Val-Tyr-AMC for another 30 minutes incubation period at 37°C. Determination of the release of AMC is read spectrophotometrically (excitation, 380 nm; emission, 460 nm). IC50 values are determined by a non-linear, least squares regression analysis using MathlQTM (ID Business Solutions Ltd., UK).

inhibition at 0.5 µM	IC50	inhibition at 1 µM	inhibition at 0.05 µM (Concentration 50 nM)	inhibition at 0.1 µM (Concentration 100 nM)	SMILES
20%	–	–	–	–	COC(=O)[C@H]1[C@H](C(=O)OC)[C@H](c2ccccc2)N[C@@H]1C(=O)N[C@@H](CC(C)C)B(O)O [Example 17, (R)-1-((2S,3S,4S,5R)-3,4-bis(methoxycarbonyl)-5-phenylpyrrolidine-2-carboxamido)-3-methylbutylboronic acid]
77%	0.078 µM	–	–	–	Cc1ccc([C@H]2[C@H]([N+](=O)[O-])[C@@H](c3ccccc3)N[C@H]2C(=O)N[C@@H](CC(C)C)B(O)O)cc1 [Example 5, (R)-3-methyl-1-((2R,3R,4S,5R)-4-nitro-5-phenyl-3-p-tolylpyrrolidine-2-carboxamido)butylboronic acid]
–	0.92 µM	53%	–	–	CC(C)C[C@H](NC(=O)[C@H]1N[C@@H](c2ccccc2)[C@H]2C(=O)N(C)C(=O)[C@H]21)B(O)O [Example 18, (R)-3-methyl-1-((1S,3R,3aS,6aR)-5-methyl-4,6-dioxo-3-phenyloctahydropyrrolo[3,4-c]pyrrole-1-carboxamido)butylboronic acid]
–	0.039 µM	–	54%	–	CC(C)C[C@H](NC(=O)[C@@H]1N[C@H](c2cccc3ccccc23)[C@@H]([N+](=O)[O-])[C@@H]1c1ccccc1)B(O)O [Example 13, (R)-3-methyl-1-((2R,3R,4S,5R)-5-(naphthalen-1-yl)-4-nitro-3-phenylpyrrolidine-2-carboxamido)butylboronic acid]
69%	0.15 µM	–	–	–	CC(C)C[C@H](NC(=O)[C@@H]1N[C@H](c2ccccc2)[C@@H]([N+](=O)[O-])[C@@H]1c1ccc2ccccc2c1)B(O)O [Example 9, (R)-3-methyl-1-((2R,3R,4S,5R)-3-(naphthalen-2-yl)-4-nitro-5-phenylpyrrolidine-2-carboxamido)butylboronic acid]
–	0.046 µM	–	–	68%	CC(C)C[C@H](NC(=O)[C@@H]1N[C@H](c2ccccc2)[C@@H]2C(=O)N(C)C(=O)[C@@H]21)B(O)O [Example 19, (R)-3-methyl-1-((1R,3S,3aR,6aS)-5-methyl-4,6-dioxo-3-phenyloctahydropyrrolo[3,4-c]pyrrole-1-carboxamido)butylboronic acid]
33%	–	–	–	–	CC(C)C[C@H](NC(=O)[C@@H]1N[C@H](c2cccc3ccccc23)[C@H]([N+](=O)[O-])[C@H]1c1ccccc1)B(O)O [Example 16, (R)-3-methyl-1-((2R,3S,4R,5R)-5-(naphthalen-1-yl)-4-nitro-3-phenylpyrrolidine-2-carboxamido)butylboronic acid]
–	0.43 µM	70%	–	–	CC(C)C[C@H](NC(=O)[C@H]1N[C@@H](c2ccccc2)[C@H]([N+](=O)[O-])[C@H]1c1ccccc1)B(O)O [Example 2, (R)-3-methyl-1-((2S,3S,4R,5S)-4-nitro-3,5-diphenylpyrrolidine-2-carboxamido)butylboronic acid]
72%	0.1 µM	–	–	–	CC(C)C[C@H](NC(=O)[C@@H]1N[C@H](c2cccnc2)[C@@H]([N+](=O)[O-])[C@@H]1c1ccccc1)B(O)O [Example 15, (R)-3-methyl-1-((2R,3R,4S,5R)-4-nitro-3-phenyl-5-(pyridin-3-yl)pyrrolidine-2-carboxamido)butylboronic acid]

SMILES	inhibition at 0.5 µM	IC50	inhibition at 1 µM	inhibition at 0.05 µM (Concentration 50 nM)	inhibition at 0.1 µM (Concentration 100 nM)
CC(C)C[C@H](NC(=O)[C@@H]1N[C@H](c2ccccc2)[C@@H]([N+](=O)[O-])[C@@H]1c1ccc([N+](=O)[O-])cc1)B(O)O [Example 8, (R)-3-methyl-1-((2R,3R,4S,5R)-4-nitro-3-(4-nitrophenyl)-5-phenylpyrrolidine-2-carboxamido)butylboronic acid]	69%	0.15 µM	–	–	–
